In patent US20040266718A1, “Inhibition of specific histone deacetylase isoforms” (priority 2001, published 2004):

Legend:
Type in all cases: cell-based, human
A549 = test: apoptosis, Cell Death Detection ELISA, A549; settings: 100 ng/ml
Protocol: (§1) In order to determine the effect of HDAC OSDNs on cell growth and cell death through apoptosis, A549 or T24 cells, MDAmb231 cells, and HMEC cells (ATCC, Manassas, Va.) were treated with HDAC OSDNs as previously described.
(§2) For the apoptosis study, cells were analyzed using the Cell Death Detection ELISA^Plus kit (Roche Diagnostic GmBH, Mannheim, Germany) according to the manufacturer's directions. Typically, 10,000 cells were plated in 96-well tissue culture dishes for 2 hours before harvest and lysis. Each sample was analyzed in duplicate. ELISA reading was done using a MR700 plate reader (DYNEX Technology, Ashford, Middlesex, England) at 410 nm. The reference was set at 490 nm.

T24 = test: apoptosis, Cell Death Detection ELISA, T24; settings: 100 ng/ml
Protocol: as §1, §2

MDAmb231 = test: apoptosis, Cell Death Detection ELISA, MDAmb231; settings: 100 ng/ml
Protocol: as §1, §2

HMEC = test: apoptosis, Cell Death Detection ELISA, HMEC; settings: 100 ng/ml, normal cells
Protocol: as §1, §2

[1] = test system: p21 mRNA expression in A549 cells; test: RNase protection assay, p21 in A549; settings: TSA vs lipofectin, 250 ng/ml, 16 hours
Protocol: (§3) As a control, A549 cells were treated by lipofectin with or without TSA (250 ng/ml) treatment for 16 hours. These RNase protection assays were done according to the following procedure. Total RNA from cells was prepared using “RNeasy miniprep kit” from QIAGEN following the manufacturer's manual. Labeled probes used in the protection assays were synthesized using “hStress-1 multiple-probe template sets” from Pharmingen (San Diego, Calif., U.S.A.) according to the manufacturer's instructions. Protection procedures were performed using “RPA II™ Ribonuclease Protection Assay Kit” from Ambion, (Austin, Tex.) following the manufacturer's instructions. Quantitation of the bands from autoradiograms was done by using Cyclone™ Phosphor System (Packard Instruments Co. Inc., Meriden, Conn.).

[2] = test system: GADD45 mRNA expression in A549 cells; test: RNase protection assay, GADD45 in A549; settings: TSA vs lipofectin, 250 ng/ml, 16 hours
Protocol: as §3

[3] = test system: Bax mRNA expression in A549 cells; test: RNase protection assay, Bax in A549; settings: TSA vs lipofectin, 250 ng/ml, 16 hours
Protocol: as §3

SMILES: CC(/C=C/C(=O)NO)=C\[C@@H](C)C(=O)c1ccc(N(C)C)cc1 [TSA, (R)-Trichostatin A, reference compound]
- Apoptosis After 48 Hour Treatment A549 (A549): ++ (3-5X fold)
- Apoptosis After 48 Hour Treatment T24 (T24): ++ (3-5X fold)
- Apoptosis After 48 Hour Treatment MDAmb231 (MDAmb231): ++ (3-5X fold)
- Apoptosis After 48 Hour Treatment HMEC (HMEC): + (2-3X fold)
- fold induction of transcription, p21, A549 [1]: 2.8 fold
- fold induction of transcription, GADD45, A549 [2]: 0.6 fold
- fold induction of transcription, Bax, A549 [3]: 0.8 fold
